What all share (assay): growth of human tumour cells (NCI), 48 h
The test system of assay [1] is T-47D breast.
Assay [2] relates to HS 578T breast.
The subject of assay [3] is MDA-MB-435.
Assay [4] deals with RPMI-8226 leukemia.
In assay [5] the test system is SNB-19 CNS.
Assay [6] has as its system SK-OV-3 ovarian.
Assay [7] deals with KM12 colon.

Where “and” joins values, the source holds several entries; their conditions need not be identical. Identical values can stand only once.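 Method: 48-hour compound exposure of cells in 96-well plates, five concentrations, linear interpolation of endpoints. GI50 marks 50% less growth. TGI denotes the concentration required for complete inhibition of growth.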 Some results are limits rather than exact numbers.

With `CN(C)c1ccc2c(c1)Sc1cc(N(C)C)ccc1N2C(=O)c1ccccc1`, the GI50 is 35.2 µM in assay [1]; 10.8 µM in assay [2]; 65 µM in assay [3]; 76.1 µM in assay [4]; 34.2 µM in assay [5]; 54.8 µM in assay [6]. The GI50 in assay [7] was 31.6 µM. Besides, the TGI in assay [1] is more than 100 µM; in assay [2], 57.4 µM; in assay [3], more than 100 µM; in assay [4] it was more than 100 µM; in assay [5], more than 100 µM; in assay [6], more than 100 µM. The molecule further had a TGI in assay [7] of more than 100 µM.
Take `C=CC(=O)N1CCN(c2ccc3cccc(NC(=O)c4cnc(C)cn4)c3n2)CC1`: the GI50 is 3.48 µM in assay [1]; 2.28 µM in assay [2]; 3.67 µM in assay [3]; 1.5 µM in assay [4]; 5.38 µM in assay [5]; 2.84 µM in assay [7]. Further, the TGI was more than 100 µM in assay [1]; 26.3 µM in assay [2]; 32.9 µM in assay [3]; 6.52 µM in assay [4]; more than 100 µM in assay [5]; 19 µM in assay [7].
Regarding `CC(C)CC(CC1=CCC2CC1C2(C)C)C1=C(O)C(C)(C)C(=O)C(C)(C)C1=O` (stereo not given), the GI50 was 0.366 µM in assay [2]; 0.374 µM in assay [3]; 0.227 µM in assay [4]; 0.375 µM in assay [5]; 0.256 µM in assay [6]; 0.328 µM in assay [7]. The TGI in assay [2] is 3.81 µM; in assay [3], 31.8 µM; in assay [4], 0.558 µM; in assay [5] it was more than 100 µM; in assay [6] it was 0.733 µM; in assay [7], 2.79 µM.
As for `Cc1cc(N/N=C/c2nc(-c3ccc(Br)cc3)oc2C)c2cc(Cl)ccc2n1`, the GI50 in assay [1], in assay [2], in assay [3], in assay [4], in assay [5] and in assay [6] was more than 100 µM in each case. The GI50 in assay [7] is more than 100 µM. Further, the TGI in assay [1], in assay [2], in assay [3], in assay [4], in assay [5] and in assay [6] was more than 100 µM in each case. The molecule further registered a TGI in assay [7] of more than 100 µM.
Consider `COc1ccc(C2CC(c3cc(OC)c(OC)c(OC)c3)=NN2C(C)=O)cc1OCC(=O)Nc1nc2ccc(C(F)(F)F)cc2s1` (stereo not given), for which the GI50 in assay [2] is 2.48 µM; in assay [4], 2.21 µM; in assay [5], 11 µM; in assay [6], 5.75 µM. Also, the TGI stood at 7.74 µM in assay [2], 7.09 µM in assay [4], 35.8 µM in assay [5] and 39.1 µM in assay [6].
In the case of `O=S(=O)(NCCNC/C=C/c1ccc(Br)cc1)c1cccc2cnccc12`, the GI50 is 3.93 µM and 6.45 µM in assay [1]; 4.62 µM and 12 µM in assay [2]; 9.22 µM and 12.5 µM in assay [3]; 5.2 µM and 12 µM in assay [4]; 13.1 µM and 17.7 µM in assay [5]; 7.26 µM and 11.7 µM in assay [6]. Further, the GI50 in assay [7] was 9.78 µM and 13.7 µM. Besides, the TGI in assay [1] is 18.4 µM and 26 µM; in assay [2], 42 µM and 51.9 µM; in assay [3] it was 25.2 µM and 25.6 µM; in assay [4] it was 25.3 µM and 35.2 µM; in assay [5], 27 µM and 34.1 µM; in assay [6], 21.1 µM and 25.1 µM. The TGI in assay [7] was 23.3 µM and 28.8 µM.
As for `CCN(C(=O)N1CCN(c2cc3c(cc2F)c(=O)c(C(=O)O)cn3C2CC2)CC1)c1nc(-c2ccc(C)cc2)cs1`, the GI50 is 2.11 µM in assay [1]; 0.46 µM in assay [2]; 0.56 µM in assay [3]; 1.03 µM in assay [5]; 1.53 µM in assay [6]; 0.41 µM in assay [7]. The TGI in assay [1] was more than 100 µM; in assay [2] it was 4.28 µM; in assay [3] it was more than 100 µM; in assay [5], more than 45.4 µM; in assay [6] it was 19.4 µM; in assay [7], more than 100 µM.
`O=[N+]([O-])c1cccc(-c2nc3sccn3c2-c2ccnc(NCCCNS(=O)(=O)c3cccc(F)c3)n2)c1`: the GI50 in assay [1] is 0.391 µM; in assay [2] it was 4.73 µM; in assay [3], 2.98 µM; in assay [4], 0.984 µM; in assay [5], 4.34 µM; in assay [6], 5.82 µM. The GI50 in assay [7] is 2.39 µM. The TGI in assay [1] is 4.64 µM; in assay [2], 47.3 µM; in assay [3] it was 11.6 µM; in assay [4], 4.18 µM; in assay [5] it was 61.8 µM; in assay [6], 30.5 µM. Further, the TGI in assay [7] amounted to 8.14 µM.
Turning to `O=c1[nH]c2ccccc2nc1-c1c[nH]c2ccccc12`, the GI50 is 8.63 µM in assay [1]; 6.83 µM in assay [2]; more than 100 µM in assay [3]; more than 100 µM in assay [4]; more than 100 µM in assay [5]; more than 100 µM in assay [6]. The GI50 in assay [7] was 1.39 µM. Further, the TGI in assay [1], in assay [2], in assay [3], in assay [4], in assay [5] and in assay [6] was more than 100 µM throughout. This molecule came in with a TGI in assay [7] of more than 100 µM.
Turning to `CN1CCN(Cc2ccc(NC(=O)c3cncc(C#Cc4cnc(N)c5ccncc45)c3)cc2C(F)(F)F)CC1`, the GI50 in assay [1] was 1.75 µM; in assay [2], 0.286 µM; in assay [3], 0.218 µM; in assay [4] it was 1.09 µM; in assay [5], 3.23 µM; in assay [6], 0.687 µM. Moreover, in assay [7], the GI50 was 0.027 µM. The TGI in assay [1] was 12.5 µM; in assay [2], 1.98 µM; in assay [3], 4 µM; in assay [4], 5.77 µM; in assay [5], 9.62 µM; in assay [6], more than 50 µM. Also, the TGI in assay [7] is 5.52 µM.
As for `C=CCOC1OC(CO[Si](C)(C)C(C)(C)C)C(OCc2ccccc2)C(OCc2ccccc2)C1OCc1ccccc1` (stereo not given), the TGI in assay [1] was more than 100 µM; in assay [2] it was more than 100 µM; in assay [3], more than 100 µM; in assay [4], more than 100 µM; in assay [5], 60.3 µM; in assay [6], more than 100 µM. The same molecule showed a TGI in assay [7] of more than 100 µM.

Source of the values: PubChem BioAssay (NCI).
